Tests used:
[1] = human, in vivo
[2] = system: CYP 1A2, 2A6, 2B6, 2C8, 2C9, 2C19, 2D6, 2E1, 3A4/5, or 4A9/11; assay: CYP inhibition in human liver microsomes; conditions: therapeutic plasma concentrations

O=C(Nc1c(Cl)c[n+]([O-])cc1Cl)c1ccc(OC(F)F)c(OCC2CC2)c1 [roflumilast N-oxide]
Absorption or pharmacokinetics on co-administration with an antacid [1]: did not alter
Linearity of pharmacokinetics (Human pharmacokinetics; 250 mcg to 1,000 mcg): dose-proportional
Time of maximum plasma concentrations after dosing (Human pharmacokinetics; fasted state): about eight
Cmax (Human pharmacokinetics; in vivo): 8.5 ng/mL
Plasma AUC (Human pharmacokinetics; in vivo): 315 ugxh/L
Time to steady state plasma concentrations (Human pharmacokinetics; once daily dosing): ~6 days
Median plasma effective half-life (Human pharmacokinetics; oral dose): ~30 h
Inhibition of CYP 1A2, 2A6, 2B6, 2C8, 2C9, 2C19, 2D6, 2E1, 3A4/5, or 4A9/11 [2]: do not inhibit

From patent US20120052122A1, “Treatment Of Chronic Obstructive Pulmonary Disease With Phosphodiesterase-4 Inhibitor” (Nycomed GmbH, priority 2010, published 2012)
